Measured values taken from US11746100B2 (GLOBAL BLOOD THERAPEUTICS, INC., priority 2020, dated 2023).

The molecules below were run against T1, human ferroportin (Homo sapiens, UniProt Q9NP59) (assay: Biological in-vitro ferroportin internalization assay (luciferase reporter)). Conditions: average pEC50; stably-transfected CHO cell line expressing human ferroportin tagged to a luciferase reporter; 6 h incubation with test compound.
T1 construct: luciferase reporter (read with the Nano-Glo Luciferase Assay System); expressed in transfected cells; host or cells: CHO cells, stably transfected, expression induced with doxycycline
T1 sequence (Q9NP59 1-571): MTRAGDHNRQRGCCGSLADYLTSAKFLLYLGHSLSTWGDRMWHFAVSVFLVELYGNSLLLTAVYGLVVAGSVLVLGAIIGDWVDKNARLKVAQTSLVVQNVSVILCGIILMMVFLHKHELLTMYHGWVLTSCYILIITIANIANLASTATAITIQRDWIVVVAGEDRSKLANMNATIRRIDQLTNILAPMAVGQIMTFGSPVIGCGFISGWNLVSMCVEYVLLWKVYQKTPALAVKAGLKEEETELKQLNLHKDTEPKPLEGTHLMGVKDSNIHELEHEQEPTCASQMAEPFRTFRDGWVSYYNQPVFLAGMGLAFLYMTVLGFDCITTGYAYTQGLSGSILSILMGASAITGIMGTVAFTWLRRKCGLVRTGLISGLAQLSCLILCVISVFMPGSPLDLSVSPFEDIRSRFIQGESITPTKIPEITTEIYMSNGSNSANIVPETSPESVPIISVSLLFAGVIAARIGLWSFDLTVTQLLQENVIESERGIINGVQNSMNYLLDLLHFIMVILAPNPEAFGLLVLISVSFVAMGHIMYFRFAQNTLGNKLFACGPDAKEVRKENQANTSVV
Assay type: cell-based
Summary of the method: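 Read-out is Nano-Glo luciferase signal after 6 h compound exposure, with average pEC50 derived. Cells are a stable CHO line carrying luciferase-tagged human ferroportin, pre-loaded 24 h with ferric ammonium citrate and doxycycline-induced for 24 h.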

Point of comparison: `CN(CC(=O)N1CCCC1(C)C)c1nc(-c2cc(OCCO)ccn2)nc2c1CCC2` [Compound 368, 1-(2,2-dimethylpyrrolidin-1-yl)-2-({2-[4-(2-hydroxyethoxy)pyridin-2-yl]-5H,6H,7H-cyclopenta[d]pyrimidin-4-yl}(methyl)amino)ethan-1-one], pEC50 7.8. Against it:
- CC(C)(C)NC(=O)CNc1nc(-c2ncccn2)nc2c1CCC2 [Compound 33, N-tert-butyl-2-{[2-(pyrimidin-2-yl)-5H,6H,7H-cyclopenta[d]pyrimidin-4-yl]amino}acetamide] — lower, 5.7
- C[C@@H]1OC[C@@H]1Oc1ccnc(-c2nc3c(c(N(C)CC(=O)NC(C)(C)C)n2)CCC3)c1 (racemic) [Compound 332, N-tert-butyl-2-{methyl[2-(4-{[(2S,3S)-2-methyloxetan-3-yl]oxy}pyridin-2-yl)-5H,6H,7H-cyclopenta[d]pyrimidin-4-yl]amino}acetamide] — the same, 7.8
- COc1ccnc(-c2nc3c(c(N(C)[C@@H]4CCN(c5ccccc5)C4=O)n2)CCC3)c1 [Compound 132, (3R)-3-{[2-(4-methoxypyridin-2-yl)-5H,6H,7H-cyclopenta[d]pyrimidin-4-yl](methyl)amino}-1-phenylpyrrolidin-2-one] — lower, 7.3
- CN(CC(=O)Nc1cnn(C)c1)c1nc(-c2cc(OC(F)F)ccn2)nc2c1CCC2 [Compound 213, 2-({2-[4-(difluoromethoxy)pyridin-2-yl]-5H,6H,7H-cyclopenta[d]pyrimidin-4-yl}(methyl)amino)-N-(1-methyl-1H-pyrazol-4-yl)acetamide] — lower, 6.4
- COc1ccnc(-c2nc3c(c(N(C)CC(=O)N[C@@H](C)CO)n2)CCC3)c1 [Compound 459, N-[(2S)-1-hydroxypropan-2-yl]-2-{[2-(4-methoxypyridin-2-yl)-5H,6H,7H-cyclopenta[d]pyrimidin-4-yl](methyl)amino}acetamide] — lower, 7.3
- CN(CC(=O)NC(C)(C)C)c1nc(-c2cc(OCCN3CCCC3)ccn2)nc2c1CCC2 [Compound 401, N-tert-butyl-2-[methyl(2-{4-[2-(pyrrolidin-1-yl)ethoxy]pyridin-2-yl}-5H,6H,7H-cyclopenta[d]pyrimidin-4-yl)amino]acetamide] — higher, 8.3
- CSCC[C@@H](C(=O)NC(C)(C)C)N(C)c1nc(-c2ccccn2)nc2c1CCC2 [Compound 117] — lower, 6.9
- CN(CC(=O)Nc1ccc(F)nc1)c1nc(-c2cc3ccccc3cn2)nc2c1CCC2 [Compound 221, N-(6-fluoropyridin-3-yl)-2-{[2-(isoquinolin-3-yl)-5H,6H,7H-cyclopenta[d]pyrimidin-4-yl](methyl)amino}acetamide] — lower, 7
- CO[C@H]1CCN(CCOc2ccnc(-c3nc4c(c(N(C)CC(=O)NC(C)(C)C)n3)CCC4)c2)C1 [Compound 464, N-tert-butyl-2-{[2-(4-{2-[(3S)-3-methoxypyrrolidin-1-yl]ethoxy}pyridin-2-yl)-5H,6H,7H-cyclopenta[d]pyrimidin-4-yl](methyl)amino}acetamide] — higher, 8.0
- CN(CC(=O)NC(C)(C)C)c1nc(-c2cc(OCC(C)(C)O)ccn2)nc2c1CCC2=O [Compound 501, N-tert-butyl-2-({2-[4-(2-hydroxy-2-methylpropoxy)pyridin-2-yl]-7-oxo-5H,6H,7H-cyclopenta[d]pyrimidin-4-yl}(methyl)amino)acetamide] — lower, 6.4
- CN(C)CCCc1ccnc(-c2nc3c(c(N(C)CC(=O)NC(C)(C)C)n2)CCC3)c1 [Compound 475, N-tert-butyl-2-[(2-{4-[3-(dimethylamino)propyl]pyridin-2-yl}-5H,6H,7H-cyclopenta[d]pyrimidin-4-yl)(methyl)amino]acetamide] — lower, 7.6
- CN(C)CCOc1ccnc(-c2nc3c(c(N(C)CC(=O)NC(C)(C)C)n2)C(C)(C)CC3)c1 [Compound 413, N-tert-butyl-2-[(2-{4-[2-(dimethylamino)ethoxy]pyridin-2-yl}-5,5-dimethyl-5H,6H,7H-cyclopenta[d]pyrimidin-4-yl)(methyl)amino]acetamide] — higher, 8
- C[C@H](C(=O)NC1(C)CC1)N(C)c1nc(-c2ccccn2)nc2c1CCC2 [Compound 204, (2R)-2-{methyl[2-(pyridin-2-yl)-5H,6H,7H-cyclopenta[d]pyrimidin-4-yl]amino}-N-(1-methylcyclopropyl)propanamide] — lower, 6.9
- COc1ccnc(-c2nc3c(c(N(C)CC(=O)Nc4ccc(F)cc4)n2)CCC3)c1 [Compound 189, N-(4-fluorophenyl)-2-{[2-(4-methoxypyridin-2-yl)-5H,6H,7H-cyclopenta[d]pyrimidin-4-yl](methyl)amino}acetamide] — within 0.2 log units, 7.7
- CN(CC(=O)Nc1cccc(F)c1)c1nc(-c2cc(OCC(C)(C)O)ccn2)nc2c1CCC2 [Compound 280, N-(3-fluorophenyl)-2-({2-[4-(2-hydroxy-2-methylpropoxy)pyridin-2-yl]-5H,6H,7H-cyclopenta[d]pyrimidin-4-yl}(methyl)amino)acetamide] — higher, 8.3
- CC(C)NC(=O)[C@@H](C)N(C)c1nc(-c2cc(OCCN(C)C)ccn2)nc2c1CCC2 [Compound 433, (2R)-2-[(2-{4-[2-(dimethylamino)ethoxy]pyridin-2-yl}-5H,6H,7H-cyclopenta[d]pyrimidin-4-yl)(methyl)amino]-N-(propan-2-yl)propanamide] — higher, 8.0
- CN(c1nc(-c2ccccn2)nc2c1CCC2)[C@H]1CCN(C2(C)CCCC2)C1=O [Compound 207, (3S)-3-{methyl[2-(pyridin-2-yl)-5H,6H,7H-cyclopenta[d]pyrimidin-4-yl]amino}-1-(1-methylcyclopentyl)pyrrolidin-2-one] — lower, 7.2
- CN(CC(=O)NC(C)(C)C)c1nc(-c2cc3ncsc3cn2)nc2c1CCC2 [Compound 328, N-tert-butyl-2-[methyl(2-{[1,3]thiazolo[5,4-c]pyridin-6-yl}-5H,6H,7H-cyclopenta[d]pyrimidin-4-yl)amino]acetamide] — lower, 6.8
- CC(C)(C)NC(=O)CNc1nc(-c2ccccn2)nc2c1CCCC2 [Compound 10, N-tert-butyl-2-{[2-(pyridin-2-yl)-5,6,7,8-tetrahydroquinazolin-4-yl]amino}acetamide] — lower, 6.6
- CN(CC(=O)NC1CCCCC1)c1nc(-c2cc(OCCO)ccn2)nc2c1CCC2 [Compound 144, N-cyclohexyl-2-({2-[4-(2-hydroxyethoxy)pyridin-2-yl]-5H,6H,7H-cyclopenta[d]pyrimidin-4-yl}(methyl)amino)acetamide] — lower, 7.5
- COc1ncc(NC(=O)CN(C)c2nc(-c3cc(OCC(C)(C)O)ccn3)nc3c2CCC3)cn1 [Compound 260, 2-({2-[4-(2-hydroxy-2-methylpropoxy)pyridin-2-yl]-5H,6H,7H-cyclopenta[d]pyrimidin-4-yl}(methyl)amino)-N-(2-methoxypyrimidin-5-yl)acetamide] — lower, 7.6
- COc1ccc2c(c1)CCN(c1nc(-c3ccccn3)nc3c1CCC3)CC2 [Compound 2, 7-methoxy-3-[2-(pyridin-2-yl)-5H,6H,7H-cyclopenta[d]pyrimidin-4-yl]-2,3,4,5-tetrahydro-1H-3-benzazepine] — lower, 6.6
- COc1ccnc(-c2nc3c(c(N(C)CC(=O)NCCN(C)C)n2)CCC3)c1 [Compound 476, N-[2-(dimethylamino)ethyl]-2-{[2-(4-methoxypyridin-2-yl)-5H,6H,7H-cyclopenta[d]pyrimidin-4-yl](methyl)amino}acetamide] — lower, 6.7
